# Marks after values point to notes of the source that are not given here.
# Key:
# Assay type in all cases: in vivo, S.D. rats
# [1] = test system: rib fracture; assay: Effect of promoting fracture healing in rib fracture-induced rat model (overall); conditions: compared with the results for N-hydroxy benzamidine compound above
# Procedure: (§1) The benzamidine compound of Chemical Formula 1 was assayed for therapeutic effect on bone fracture in rat models subjected to rib fracture. Starting from 2 days after the induction of rib fracture, the administration of the benzamidine compound was continued for one, two, three and four weeks. Changes in (body weight, body weight gain, volume of bony callus, bone density, bone strength, and bone histopathology were observed.
# (§2) A total of 80 S.D. rats (10-week-old, BioGenomics, Korea) was adapted to a laboratory environment for 12 days before being used in experiments. While being housed at a density of two or three to a plastic cage, the experimental animals were kept in a breeding room under controlled temperature (20 to 25° C.) and humidity (30 to 35%). Under light-dark cycles of 12 hours, the rats were allowed to have free access to feedstuff and tap water.
# (§3) 10 mg and 50 mg of N-hydroxy-4-{5-[4-(5-isopropyl-2-methyl-1,3-thiazol-4-yl)phenoxy]pentoxy}benzamidine were completely dissolved in 5 ml of sterilized distilled water. The benzamidine compound in the solutions was orally administered at doses of 10 mg and 50 mg per kg of body weight once a day for one, two, three and four weeks from day 2 of the surgery. […]
# [2] = test system: bony callus; assay: Bone density of bony callus (DEXA), 9th rib
# Procedure: as §1, §2
# (§4) 10 mg and 50 mg of N-hydroxy-4-{5-[4-(5-isopropyl-2-methyl-1,3-thiazol-4-yl)phenoxy]pentoxy}benzamidine were completely dissolved in 5 ml of sterilized distilled water. The benzamidine compound in the solutions was orally administered at doses of 10 mg and 50 mg per kg of body weight once a day for one, two, three and four weeks from day 2 of the surgery.
# (§5) All the experimental animals were anesthetized with ketamine hydrochloride and xylazine hydrochloride and underwent an operation for inducing a fracture on the 8th and the 9th rib. In this regard, the ribs were transversely cut with operation scissors. After the fracture induction, the fractured ribs were assembled to be aligned with each other and the wound cavity was closed through skin suture.
# The 9th rib enucleated after the fracture induction was measured for the bone density around the bony callus using dual-energy x-ray absorptiometry (DEXA, PXImus; Lunar Medison, Wis.) and the bone density is calculated in mg/cm^2 in Table 7.
# [3] = test system: osteoclasts in the bony callus; assay: Number of osteoclasts in the bony callus, 8th rib
# Procedure: as §1, §2, §4, §5
# (§6) The 8th rib enucleated after the fracture induction was fixed in 10% neutral formalin, followed by decalcification by changing a decalcification solution (2.24% formic acid, 0.5N […]) with fresh solution once a day for five days. After completion of the decalcification, the rib was embedded in paraffin. The paraffin-embedded tissue was sliced at a thickness of 3 to 4 μm, stained with hematoxylin-eosin or Masson's trichrome and observed through an optical microscope.
# Furthermore, the number of osteoclasts in the bony callus, particularly, within an area of (200 μm)^2 on the fracture surface at which endochondral ossification commenced, was measured using an Analysis Image processing system (SIS Germany).
# [4] = test system: bony callus; assay: Histopathological observation of 8th rib (FIG. 1); conditions: all administration time periods; versus non-treated group; dose-dependent
# Procedure: FIG. 1 an optical microphotograph showing sliced tissue specimens of the 8th rib extracted after fracture induction, stained with Masson's trichrome.
# as §1, §2, §3
# [5] = test system: bony callus; assay: Histomorphometry of bony callus (connective, cartilage, bone tissue content), 8th rib
# Procedure: as §1, §2, §4, §5, §6
# From the rib tissue specimen prepared above, the amounts of the connective tissue, cartilage and bone tissue in the bony callus were examined using an Analysis Image processing system (SIS Germany) and are represented as percentages in Tables 3 to 5, below.
# [6] = test system: bony callus; assay: Bone strength of bony callus (three point bending test), 9th rib
# Procedure: as §1, §2, §4, §5
# The bone strength around the fracture face at which a bony callus was formed in the 9th rib enucleated after the fracture induction was determined from three point bending tests using an Instron material testing system (Instron 6022; Instron, USA; speed 20 mm/min).
# [7] = Body weight gain in rib fracture-induced rat model
# Procedure: as §1, §2, §4, §5
# All the experimental animals were measured for body weight one day before the operation, the day of the operation, the day of administration, and 7, 14, 21 and 28 days after administration. In order to reduce the difference among individuals due to feedstuff intake, all experimental animals were starved for 18 hours or more on the day of the measurement. Also, to minimize the difference of change in body weight of individual animals, body weight gain during time periods from the day of the operation to 7, 14, 21 and 28 days after the administration were calculated.
# [8] = test system: bony callus formed around the fractured 8th and 9th ribs; assay: Volume of bony callus in rib fracture-induced rat model
# Procedure: as §1, §2, §4, §5
# On the sacrificial day, the bony callus formed around the fractured 8th and 9th ribs was separated from adjacent tissues and taken out of all experimental animals. The enucleated bony calluses were measured for long and short diameters in millimeters. The volume of the bony callus was calculated from the measurements using the following mathematic formula 1. Volume of Bony callus=½×(a×b^2) Formula 1
# a: long diameter of bony callus,
# b: short diameter of bony callus.
# [9] = 10 mg/kg oral once a day, 7 days after administration
# [10] = 10 mg/kg oral once a day, 14 days after administration
# [11] = 10 mg/kg oral once a day, 21 days after administration
# [12] = 10 mg/kg oral once a day, 28 days after administration
# [13] = 50 mg/kg oral once a day, 7 days after administration
# [14] = 50 mg/kg oral once a day, 14 days after administration
# [15] = 50 mg/kg oral once a day, 21 days after administration
# [16] = 50 mg/kg oral once a day, 28 days after administration
smiles,measurement,setting,value
"Cc1nc(-c2ccc(OCCCCCOc3ccc(C(=N)N)cc3)cc2)c(C(C)C)s1 [4-{5-[4-(5-isopropyl-2-methyl-1,3-thiazol-4-yl)phenoxy]pentoxy}benzamidine]",Healing effects on bone fracture,[1],same healing effects as above
"Cc1nc(-c2ccc(OCCCCCOc3ccc(C(=N)NO)cc3)cc2)c(C(C)C)s1 [Cpd. Of Chemical Formula 1, N-hydroxy-4-{5-[4-(5-isopropyl-2-methyl-1,3-thiazol-4-yl)phenoxy]pentoxy}benzamidine]",Changes in Bone Density of Bony Callus,[2]; [9],0.24 ± 0.04 mg/cm^2
same,Changes in Bone Density of Bony Callus,[2]; [10],0.32 ± 0.04 mg/cm^2
same,Changes in Bone Density of Bony Callus,[2]; [11],0.39 ± 0.04 mg/cm^2
same,Changes in Bone Density of Bony Callus,[2]; [12],0.55 ± 0.06 mg/cm^2
same,Changes in Bone Density of Bony Callus,[2]; [13],0.24 ± 0.03 mg/cm^2
same,Changes in Bone Density of Bony Callus,[2]; [14],0.32 ± 0.04 mg/cm^2
same,Changes in Bone Density of Bony Callus,[2]; [15],0.44 ± 0.07 mg/cm^2
same,Changes in Bone Density of Bony Callus,[2]; [16],0.57 ± 0.04 mg/cm^2
same,Changes in Population of Osteoclasts within Bony Callus,[3]; [9],43.80 ± 3.83 Counts present within (200 μm)^2 of bony callus
same,Changes in Population of Osteoclasts within Bony Callus,[3]; [10],50.60 ± 2.70 Counts present within (200 μm)^2 of bony callus
same,Changes in Population of Osteoclasts within Bony Callus,[3]; [11],31.00 ± 6.67 Counts present within (200 μm)^2 of bony callus
same,Changes in Population of Osteoclasts within Bony Callus,[3]; [12],21.60 ± 3.58 Counts present within (200 μm)^2 of bony callus
same,Changes in Population of Osteoclasts within Bony Callus,[3]; [13],42.60 ± 4.62 Counts present within (200 μm)^2 of bony callus
same,Changes in Population of Osteoclasts within Bony Callus,[3]; [14],53.60 ± 2.41 Counts present within (200 μm)^2 of bony callus
same,Changes in Population of Osteoclasts within Bony Callus,[3]; [15],22.20 ± 3.03 Counts present within (200 μm)^2 of bony callus
same,Changes in Population of Osteoclasts within Bony Callus,[3]; [16],17.60 ± 2.97 Counts present within (200 μm)^2 of bony callus
same,"Bone tissue in bony callus, histopathological observation (FIG. 1)",[4],increased bone tissue in bony callus in all administration time periods
same,Changes in Content of Bone Tissue in Bony Callus,[5]; [9],37.95 ± 6.44 % relative to total bony callus
same,Changes in Content of Cartilage Tissue in Bony Callus,[5]; [9],24.79 ± 5.43 % relative to total bony callus
same,Changes in Content of Connective Tissue of Bony Callus,[5]; [9],33.19 ± 3.06 % relative to total bony callus
same,Changes in Content of Bone Tissue in Bony Callus,[5]; [10],54.31 ± 9.50 % relative to total bony callus
same,Changes in Content of Cartilage Tissue in Bony Callus,[5]; [10],23.77 ± 3.44 % relative to total bony callus
same,Changes in Content of Connective Tissue of Bony Callus,[5]; [10],6.28 ± 0.72 % relative to total bony callus
same,Changes in Content of Bone Tissue in Bony Callus,[5]; [11],66.71 ± 5.41 % relative to total bony callus
same,Changes in Content of Cartilage Tissue in Bony Callus,[5]; [11],18.51 ± 2.29 % relative to total bony callus
same,Changes in Content of Connective Tissue of Bony Callus,[5]; [11],5.55 ± 1.42 % relative to total bony callus
same,Changes in Content of Bone Tissue in Bony Callus,[5]; [12],83.30 ± 4.43 % relative to total bony callus
same,Changes in Content of Cartilage Tissue in Bony Callus,[5]; [12],6.59 ± 2.02 % relative to total bony callus
same,Changes in Content of Connective Tissue of Bony Callus,[5]; [12],3.20 ± 0.89 % relative to total bony callus
same,Changes in Content of Bone Tissue in Bony Callus,[5]; [13],39.24 ± 14.12 % relative to total bony callus
same,Changes in Content of Cartilage Tissue in Bony Callus,[5]; [13],22.42 ± 5.45 % relative to total bony callus
same,Changes in Content of Connective Tissue of Bony Callus,[5]; [13],29.51 ± 5.70 % relative to total bony callus
same,Changes in Content of Bone Tissue in Bony Callus,[5]; [14],55.94 ± 8.38 % relative to total bony callus
same,Changes in Content of Cartilage Tissue in Bony Callus,[5]; [14],20.09 ± 6.38 % relative to total bony callus
same,Changes in Content of Connective Tissue of Bony Callus,[5]; [14],6.06 ± 0.44 % relative to total bony callus
same,Changes in Content of Bone Tissue in Bony Callus,[5]; [15],74.07 ± 8.43 % relative to total bony callus
same,Changes in Content of Cartilage Tissue in Bony Callus,[5]; [15],11.49 ± 2.31 % relative to total bony callus
same,Changes in Content of Connective Tissue of Bony Callus,[5]; [15],3.58 ± 0.62 % relative to total bony callus
same,Changes in Content of Bone Tissue in Bony Callus,[5]; [16],87.27 ± 8.97 % relative to total bony callus
same,Changes in Content of Cartilage Tissue in Bony Callus,[5]; [16],5.37 ± 1.38 % relative to total bony callus
same,Changes in Content of Connective Tissue of Bony Callus,[5]; [16],2.59 ± 0.52 % relative to total bony callus
same,Changes in bone strength of bony callus,[6]; [9],2.15 ± 0.42 Nos. of Impact applied
same,Changes in bone strength of bony callus,[6]; [10],2.57 ± 0.65 Nos. of Impact applied
same,Changes in bone strength of bony callus,[6]; [11],3.10 ± 0.40 Nos. of Impact applied
same,Changes in bone strength of bony callus,[6]; [12],3.26 ± 0.43 Nos. of Impact applied
same,Changes in bone strength of bony callus,[6]; [13],2.35 ± 0.47 Nos. of Impact applied
same,Changes in bone strength of bony callus,[6]; [14],2.84 ± 0.34 Nos. of Impact applied
same,Changes in bone strength of bony callus,[6]; [15],3.23 ± 0.35 Nos. of Impact applied
same,Changes in bone strength of bony callus,[6]; [16],3.35 ± 0.38 Nos. of Impact applied
same,Changes in Body Weight Gain,[7]; [9],16.00 ± 13.55 g
same,Changes in Body Weight Gain,[7]; [10],44.40 ± 14.54 g
same,Changes in Body Weight Gain,[7]; [11],46.40 ± 22.39 g
same,Changes in Body Weight Gain,[7]; [12],61.20 ± 22.81 g
same,Changes in Body Weight Gain,[7]; [13],14.80 ± 08.81 g
same,Changes in Body Weight Gain,[7]; [14],36.82 ± 29.52 g
same,Changes in Body Weight Gain,[7]; [15],68.60 ± 16.65 g
same,Changes in Body Weight Gain,[7]; [16],84.40 ± 23.37 g
same,Changes in Bony Callus Volume,[8]; [9],12.84 ± 4.42* mm^3
same,Changes in Bony Callus Volume,[8]; [10],5.47 ± 1.81* mm^3
same,Changes in Bony Callus Volume,[8]; [11],4.73 ± 2.13* mm^3
same,Changes in Bony Callus Volume,[8]; [12],3.96 ± 2.41* mm^3
same,Changes in Bony Callus Volume,[8]; [13],8.62 ± 3.43* mm^3
same,Changes in Bony Callus Volume,[8]; [14],4.36 ± 1.44* mm^3
same,Changes in Bony Callus Volume,[8]; [15],3.84 ± 1.86* mm^3
same,Changes in Bony Callus Volume,[8]; [16],3.37 ± 0.79* mm^3
"Cc1nc(-c2ccc(OCCCCCOc3ccc(C(=N)NO)cc3)cc2)c(C(C)C)s1 [N-hydroxy-4-{5-[4-(5-isopropyl-2-methyl-1,3-thiazol-4-yl)phenoxy]pentoxy}benzamidine]",Healing effects on bone fracture,[1],same healing effects as above
